≈ marks a conversion by molar mass, not a printed value. Read-outs that look alike come from different tables or passages of the source.
Columns and labels:
Type in all cases: cell-based
[1] = tested on: Pseudomonas aeruginosa ATCC 27853 biofilm; assay: MBIC assay (crystal violet); settings: 48 h at 37° C., absorbance 540 nm
Experimental: (§1) The exact weighed amount was noted and the volume of solvent to reach a 80 mM dilution calculated. Half of the volume was added first, by adding Tween 80 and let stand for 5 minutes. In a second step, the other half of the volume DMSO was added and resuspended to help the dilution process. The closed tube was inverted 5-10 times and then vortexed very thoroughly for at least 30 seconds. If after this procedure crystals were still visible, the tube was placed in a shaker at 37° C. at 150 rpm for at least 30 minutes (it is indicated if the dissolution period was longer than 2 h). […] In case of Bis(4-Chlorophenyl) thiosulfonate, a lower concentrated stock solution of 2 mM needed to be prepared. For that, the required amount of compound was weighed in and 2% v/v Tween80 and 2% v/v DMSO of the end volume of the stock solution was added to the substance. This mix was heated in a water bath set to 40° C. and occasionally shaken. When the whole amount of the substance reached dissolution, the volume was filled up with growth medium until the end volume. This 2 mM stock solution of Bis(4-Chlorophenyl) thiosulfonate was used in the MIC plate and diluted two-fold, resulting in a testing range of Bis(4-Chlorophenyl) thiosulfonate from 1 mM to 0.002 mM.
Frozen aliquots of Staphylococcus epidermis ATCC 35984 and Pseudomonas aeruginosa ATCC 27853 were used to inoculate a tryptic soy agar (TSA) plate and were incubated overnight at 37° C. After incubation 3-5 well-isolated colonies with the same morphology were selected from the TSA plate and resuspended in 2 ml 0.9% saline solution with 3-6 glass beads and vortexed. The optical density of the bacterial suspension was measured at 600 nm (OD600) with a spectrophotometer (Evolution™ 201/220 UV-Visible Spectrophotometer, Thermo Fisher Scientific) and diluted to an OD600 of 0.2. The MBIC assay was performed in a 96-microtiter plate. […] The solution was resuspended and transferred to a flat-bottom 96-well plate and the absorbance measured at 540 nm with the spectrophotometer. […]

[2] = tested on: Klebsiella pneumoniae ATCC 13883; assay: MIC assay; settings: for MIC50 / MIC90: Klebsiella pneumoniae, ATCC13883; for MIC50 / MIC90 / MIC50 Klebsiella pneumoniae / MIC90 Klebsiella pneumoniae: Example 2a, n = 3, ATCC 13883
Experimental: as §1
(§2) The microorganisms as indicated in Table 4 were used to inoculate a tryptic soy agar (TSA) plate and incubated overnight at 37° C. After incubation 3-5 well-isolated colonies with the same morphology were selected from the TSA plate and resuspended in 2 mL 0.9% saline solution with 3-6 glass beads and vortexed. The optical density at 600 nm (OD600) of the bacterial suspension was measured with a spectrophotometer (Evolution™ 201/220 UV-Visible Spectrophotometer, Thermo Fisher Scientific) and diluted to an OD600 of 0.0008, which resembles 10^6 CFU/mL.
(§3) The MIC assay was performed in a flat-bottom 96-microtiter plate. 50 μL of MHB-II was added into columns 2-11, and 100 μL to column 12 for sterility control. 100 μL of the 8 mM test compound solution (method 1) was added to column 1. A two-fold dilution series of the solution in MHB-II was achieved by resuspending 50 μL of the 8 mM solution from column 1 to column 2. This step was repeated until column 10. The respective concentration of Tween 80 and DMSO in column 1 was 2.5%, which is two-fold diluted throughout the plate. 50 μL of the bacterial suspension was added to column 1-11. The microtiter plates were sealed with adhesive polyethylene film for sealing microplates (Diversified Biotech) and incubated for 24 h at 37° C. After incubation the OD was measured at 600 nm with the Varioskan (Thermo Fisher Scientific). The minimal concentration which causes reduction of final OD600 of the bacterial culture by 50% (MIC50) and by 90% (MIC90) was calculated after normalization of the obtained OD values to the growth control in column 11. This assay was repeated three times in three independent experiments.
(§4) Hereafter, the stock solutions of the compounds were used in three repetitions in a minimal inhibitory concentration (MIC) assay at a 2-fold dilution range with various bacteria from the gram-positive and gram-negative group and a yeast, Candida albicans. The concentrations that show only less than 10% growth after 24 h were considered the MIC90-values, whereas the concentrations that show 50% growth after 24 h when compared to the bacterial growth control were considered the MIC50-values. Escherichia coli and Staphylococcus aureus were used as representatives for a gram-negative bacteria and gram-positive bacteria, respectively. Furthermore, the yeast C. albicans was also tested.
(§5) In an Eppendorf tube between 10-20 mg of the test compound was weighed. Hereafter, the required amount of Tween 80 was added, followed by the amount DMSO. After vigorous shaking, the dissolved and transparent dilutions were diluted 10 times with Mueller Hinton Broth (MHB) for the MIC assay. […]

[3] = tested on: Streptococcus uberis ATCC 27985; assay: MIC assay; settings: for MIC50 / MIC90: Streptococcus uberis, ATCC27985
Experimental: as §1, §2, §3, §4, §5

[4] = tested on: Escherichia coli ATCC 25922; assay: MIC assay; settings: for MIC50 / MIC90: Escherichia coli, ATCC25922
Experimental: as §1, §2, §3, §4, §5

[5] = tested on: Streptococcus Suis Type 2 21-018358-002; assay: MIC assay; settings: for MIC50 / MIC90: Streptococcus suis
Experimental: as §1, §2, §3, §4, §5

[6] = tested on: Staphylococcus aureus (MRSA) LUH14616; assay: MIC assay; settings: for MIC50 / MIC90: Staphylococcus aureus, MRSA
Experimental: as §1, §2, §3, §4, §5

[7] = Example 2a, n = 3, ATCC 27985, read-out: MIC90 Streptococcus uberis (+)
[8] = Example 2a, n = 3, ATCC 25922, read-out: MIC90 Escherichia coli
[9] = Example 2b, FIG. 1, no MIC90 detected in the tested range, read-out: Average MIC90 E. coli (Ec)
[10] = Example 2a, n = 3, 21-018358-002
[11] = Example 2a, n = 3, 21-018358-002, read-out: MIC90 Streptococcus Suis Type 2 (+)
[12] = Example 2a, n = 3, LUH14616, read-out: MIC90 Staphylococcus aureus (+) (MRSA)

| Compound | P. aeruginosa MBIC90 [1] | MIC50 Klebsiella pneumoniae [2] | MIC90 Klebsiella pneumoniae [2] | MIC50 Streptococcus uberis (+) ([3]; Example 2a, n = 3, ATCC 27985) | MIC90 Streptococcus uberis (+) ([3]; Example 2a, n = 3, ATCC 27985) | MIC50 Escherichia coli ([4]; Example 2a, n = 3, ATCC 25922) | MIC90 Escherichia coli ([4]; Example 2a, n = 3, ATCC 25922) | MIC50 Streptococcus Suis Type 2 (+) [5, 10] | MIC90 Streptococcus Suis Type 2 (+) [5, 10] | MIC50 Staphylococcus aureus (+) (MRSA) ([6]; Example 2a, n = 3, LUH14616) | MIC90 Staphylococcus aureus (+) (MRSA) ([6]; Example 2a, n = 3, LUH14616) | further results |
| --- | --- | --- | --- | --- | --- | --- | --- | --- | --- | --- | --- | --- |
| Clc1ccc(SSc2ccc(Cl)cc2)cc1 [Bis (4-chlorophenyl) disulfide, Bis(4-chlorophenyl) disulfide] | >4 mM |  |  |  |  |  |  |  |  |  |  | MIC50 [2]: > 4000 µM; MIC90 [2]: > 4000 µM; MIC50 ([3]; Example 2a, n = 3, ATCC 27985): 20 µM (≈ 5.74 µg/mL); MIC90 [3, 7]: 50 µM (≈ 14.4 µg/mL); MIC90 ([3]; Example 2b, FIG. 1, no MIC90 detected in the tested range, read-out: Average MIC90 S. uberis (Su)): > 1000 µM; MIC50 ([4]; Example 2a, n = 3, ATCC 25922): > 4000 µM; MIC90 [4, 8]: > 4000 µM; MIC90 [4, 9]: > 1000 µM; MIC50 [5, 10]: 60 µM (≈ 17.2 µg/mL); MIC90 [5, 11]: 50 µM (≈ 14.4 µg/mL); MIC90 ([5]; Example 2b, FIG. 1, no MIC90 detected in the tested range, read-out: Average MIC90 S. suis (Ss)): > 1000 µM; MIC50 ([6]; Example 2a, n = 3, LUH14616): < 8 µM; MIC90 [6, 12]: 190 µM (≈ 54.6 µg/mL); MIC90 ([6]; Example 2b, FIG. 1, no MIC90 detected in the tested range, read-out: Average MIC90 S. aureus (Sau)): > 1000 µM |
| O=S(=O)(Sc1ccc(Cl)cc1)c1ccc(Cl)cc1 [Bis (4-chlorophenyl) thiosulfonate, Bis(4-chlorophenyl) thiosulfonate] |  | >1000 µM | >1000 µM | 60 µM | 500 µM | >1000 µM | >1000 µM | 130 µM | 370 µM | 60 µM | 750 µM |  |
| Fc1ccc(SSc2ccc(F)cc2)cc1 [Bis (4-fluorophenyl) disulfide, Bis(4-fluorophenyl) disulfide] |  |  |  |  |  |  |  |  |  |  |  | Average MIC90 K. pneumoniae (Kp) ([2]; Example 2b, FIG. 1, no MIC90 detected in the tested range): above 4000 μM; MIC50 [2]: > 4000 µM; MIC90 [2]: > 4000 µM; MIC50 ([3]; Example 2a, n = 3, ATCC 27985): 210 µM (≈ 53.4 µg/mL); MIC90 [3, 7]: 630 µM (≈ 160 µg/mL); MIC50 ([4]; Example 2a, n = 3, ATCC 25922): 1250 µM (≈ 318 µg/mL); MIC90 [4, 8]: > 4000 µM; MIC90 [4, 9]: > 4000 µM; MIC50 [5, 10]: 380 µM (≈ 96.6 µg/mL); MIC90 [5, 11]: 1670 µM (≈ 425 µg/mL); MIC50 ([6]; Example 2a, n = 3, LUH14616): < 8 µM; MIC90 [6, 12]: 2330 µM (≈ 593 µg/mL) |
| [O-][S+](Sc1ccc(F)cc1)c1ccc(F)cc1 (centres unmarked) [Bis (4-fluorophenyl) thiosulfinate, Bis(4-fluorophenyl) thiosulfinate] |  | 2500 µM (≈ 676 µg/mL) | >4000 µM | 420 µM (≈ 114 µg/mL) | 1500 µM (≈ 405 µg/mL) | 1000 µM (≈ 270 µg/mL) | >4000 µM | 380 µM (≈ 103 µg/mL) | 830 µM (≈ 224 µg/mL) | 280 µM (≈ 75.7 µg/mL) | 1770 µM (≈ 478 µg/mL) |  |
| O=S(=O)(Sc1ccc(F)cc1)c1ccc(F)cc1 [Bis (4-fluorophenyl) thiosulfonate, Bis(4-fluorophenyl) thiosulfonate] |  | >4000 µM | >4000 µM | 670 µM | 1330 µM | 1500 µM | >4000 µM | 750 µM | 880 µM | <8 µM | 1270 µM |  |
| CCCSSCCC [Di-n-propyl disulfide, reference compound] | >4 mM |  |  |  |  |  |  |  |  |  |  |  |
| CCCSS(=O)(=O)CCC [Di-n-propyl thiosulfonate, reference compound] | 0.5 mM |  |  |  |  |  |  |  |  |  |  |  |

— US20260083126A1, “ANTIMICROBIAL COMPOSITIONS” (AHV International B.V., priority 2022, published 2026)
